Values joined by “and” are separate entries in the source; they are usually repeats but may differ in a detail not shown here. Equal entries are not always repeated. Where two headings read alike, the source gives them in different places.
What was measured:
[1] = system: human ES motor neurons; test: Rescue of CPA toxicity by kinase inhibitors in dilution series (FIG. 3); conditions: dilution series, FIG. 3
[2] = system: human ES motor neurons carrying the ALS-causing SOD1^A4V mutation; test: cells; format: cell-based; conditions: for EC50 / viability at 1 µM / Emax: 72 h; for viability at 1 µM: CPA (33 μM) + compound (1 μM), read-out: Motor Neuron Survival, % untreated; for Emax: read-out: Emax (MN survival % untreated)
Procedure: Next, survival assays were performed with all the analogs at once to generate a low-variability dataset. All compounds were evaluated at concentrations ranging from 0.1-3.0 μM (five-point dilution) in three technical replicates and two biological replicates.

[3] = biological target: T1, MLK1/MAP3K9 (Homo sapiens, UniProt P80192); test: Radiolabeled ATP kinase assay (Reaction Biology Corp.), MLK1; format: biochemical; conditions: [Cmpd] 0.1 μM, 10 μM ATP
T1 construct: purchased Reaction Biology Corp
T1 sequence (P80192 whole entry): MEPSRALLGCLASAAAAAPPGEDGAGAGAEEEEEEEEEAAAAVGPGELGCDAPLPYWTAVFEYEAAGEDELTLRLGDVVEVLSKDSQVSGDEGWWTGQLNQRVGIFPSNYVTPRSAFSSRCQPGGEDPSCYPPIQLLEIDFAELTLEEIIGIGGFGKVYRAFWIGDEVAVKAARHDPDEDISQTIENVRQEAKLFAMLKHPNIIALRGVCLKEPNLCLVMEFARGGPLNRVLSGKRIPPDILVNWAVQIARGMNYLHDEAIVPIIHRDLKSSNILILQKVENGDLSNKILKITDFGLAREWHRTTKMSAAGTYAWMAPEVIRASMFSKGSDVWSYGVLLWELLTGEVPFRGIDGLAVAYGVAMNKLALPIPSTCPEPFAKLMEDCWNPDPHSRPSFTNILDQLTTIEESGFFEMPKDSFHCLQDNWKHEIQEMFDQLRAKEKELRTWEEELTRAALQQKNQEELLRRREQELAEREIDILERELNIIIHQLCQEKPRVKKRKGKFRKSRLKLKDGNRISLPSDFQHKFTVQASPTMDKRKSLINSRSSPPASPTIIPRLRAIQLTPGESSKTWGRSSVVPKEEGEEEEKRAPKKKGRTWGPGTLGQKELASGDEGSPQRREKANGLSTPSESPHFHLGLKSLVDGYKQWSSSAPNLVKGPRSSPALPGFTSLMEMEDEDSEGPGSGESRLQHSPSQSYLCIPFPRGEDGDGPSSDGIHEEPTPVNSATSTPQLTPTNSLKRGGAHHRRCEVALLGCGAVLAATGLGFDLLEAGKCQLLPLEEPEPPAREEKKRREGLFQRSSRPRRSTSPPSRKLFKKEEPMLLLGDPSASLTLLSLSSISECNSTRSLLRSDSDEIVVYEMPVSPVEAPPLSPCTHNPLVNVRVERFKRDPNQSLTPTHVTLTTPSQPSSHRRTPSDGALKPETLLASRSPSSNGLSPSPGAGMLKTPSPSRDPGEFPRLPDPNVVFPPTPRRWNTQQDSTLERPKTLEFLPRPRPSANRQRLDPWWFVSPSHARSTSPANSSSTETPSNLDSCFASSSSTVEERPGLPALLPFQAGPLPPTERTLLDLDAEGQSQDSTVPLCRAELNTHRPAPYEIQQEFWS
Procedure: (§1) Meanwhile, the same analogs were analyzed in a radiolabeled ATP assay (10 μM ATP; Reaction Biology Corp.) to compare the extent to which they could inhibit the activity of HGK, MLK1, or MLK3 in a cell-free environment (Table S3 and S4).

[4] = biological target: T2, MLK3/MAP3K11 (Homo sapiens, UniProt Q16584); test: Radiolabeled ATP kinase assay (Reaction Biology Corp.), MLK3; format: biochemical; conditions: [Cmpd] 0.1 μM; 10 μM ATP
T2 construct: purchased Reaction Biology Corp
T2 sequence (Q16584 whole entry): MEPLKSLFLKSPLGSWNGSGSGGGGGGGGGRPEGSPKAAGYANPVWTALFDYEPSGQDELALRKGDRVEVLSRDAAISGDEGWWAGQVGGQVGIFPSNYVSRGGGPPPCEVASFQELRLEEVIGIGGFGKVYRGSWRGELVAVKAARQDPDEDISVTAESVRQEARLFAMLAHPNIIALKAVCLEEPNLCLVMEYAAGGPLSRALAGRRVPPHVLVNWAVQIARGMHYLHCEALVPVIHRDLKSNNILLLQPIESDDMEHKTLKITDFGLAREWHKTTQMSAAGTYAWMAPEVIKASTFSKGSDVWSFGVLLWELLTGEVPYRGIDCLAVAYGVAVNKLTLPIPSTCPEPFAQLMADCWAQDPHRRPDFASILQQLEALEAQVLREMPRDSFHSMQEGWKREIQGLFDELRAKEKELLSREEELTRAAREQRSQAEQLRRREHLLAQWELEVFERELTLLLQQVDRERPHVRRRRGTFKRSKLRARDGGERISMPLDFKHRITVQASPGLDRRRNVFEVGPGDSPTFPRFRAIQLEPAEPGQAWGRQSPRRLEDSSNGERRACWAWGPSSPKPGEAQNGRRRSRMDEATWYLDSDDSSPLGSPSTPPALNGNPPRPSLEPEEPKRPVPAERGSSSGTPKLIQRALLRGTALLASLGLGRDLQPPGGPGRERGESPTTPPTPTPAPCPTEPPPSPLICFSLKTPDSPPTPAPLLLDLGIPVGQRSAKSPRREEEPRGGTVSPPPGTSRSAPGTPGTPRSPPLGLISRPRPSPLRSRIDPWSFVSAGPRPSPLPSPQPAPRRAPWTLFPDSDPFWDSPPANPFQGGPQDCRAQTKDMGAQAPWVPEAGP
Procedure: as §1

[5] = in vitro; conditions: CD-1, mouse, liver microsomes, pH 7.4
Procedure: To test the metabolic stability of the analogs, an in vitro microsomal stability assay was carried out.
The microsomal stability assay was performed in 96-well format (Perkin-Elmer, StorPlate-96U, PP, 96 well, round bottom). […] A stock solution of the compound to be analyzed (0.8 μL. 5 mM) or ethoxycoumarin (positive control, 0.8 μL, 5 mM) was added and the mixture was warmed to 37° C. for 5 minutes. The mouse microsomes (CD-1, 5 μL, thawed in a 37° C. water bath before use, 20 mg/mL, Life Technologies) were added. At selected time points (0, 15, 30, 45, 60 and 120 minutes) aliquots (15 μL) were withdrawn from the plate and quenched upon addition to cold acetonitrile (60 μL), containing an internal standard (5 μM) in a 96-well plate. The samples were centrifuged at 13,000 rpm for 10 minutes at 4° C. The supernatant (40 μL) was withdrawn and transferred to a sample vial with insert. The samples were analyzed by LC-MS.
LC-MS analysis was performed on a platform comprising a Thermo Scientific Dionex Ultimate 3000 and a Bruker amaZon SL equipped with an electrospray ionization source controlled by Bruker Hystar 3.2. […] The flow rate was maintained at 400 μL/min. The initial flow conditions were 60% solvent A (water containing 0.1% acetic acid) and 40% solvent B (methanol containing 0.1% acetic acid).
Aliquots were taken over the course of two hours and analyzed by HPLG-MS using an internal standard to assess compound stability over time.

[6] = biological target: HGK/MAP4K4 (Homo sapiens, UniProt O95819); test: Radiolabeled ATP kinase assay (Reaction Biology Corp.), HGK; format: biochemical; parameters: purchased Reaction Biology Corp; conditions: 10 μM ATP, read-out: % Enzyme Activity (relative to DMSO controls), HGK/MAP4K4, Data 1; for remaining activity at 0.025 µM: [Cmpd] 0.025 μM; for remaining activity at 0.1 µM: [Cmpd] 0.1 μM
HGK/MAP4K4, sequence (O95819 whole entry): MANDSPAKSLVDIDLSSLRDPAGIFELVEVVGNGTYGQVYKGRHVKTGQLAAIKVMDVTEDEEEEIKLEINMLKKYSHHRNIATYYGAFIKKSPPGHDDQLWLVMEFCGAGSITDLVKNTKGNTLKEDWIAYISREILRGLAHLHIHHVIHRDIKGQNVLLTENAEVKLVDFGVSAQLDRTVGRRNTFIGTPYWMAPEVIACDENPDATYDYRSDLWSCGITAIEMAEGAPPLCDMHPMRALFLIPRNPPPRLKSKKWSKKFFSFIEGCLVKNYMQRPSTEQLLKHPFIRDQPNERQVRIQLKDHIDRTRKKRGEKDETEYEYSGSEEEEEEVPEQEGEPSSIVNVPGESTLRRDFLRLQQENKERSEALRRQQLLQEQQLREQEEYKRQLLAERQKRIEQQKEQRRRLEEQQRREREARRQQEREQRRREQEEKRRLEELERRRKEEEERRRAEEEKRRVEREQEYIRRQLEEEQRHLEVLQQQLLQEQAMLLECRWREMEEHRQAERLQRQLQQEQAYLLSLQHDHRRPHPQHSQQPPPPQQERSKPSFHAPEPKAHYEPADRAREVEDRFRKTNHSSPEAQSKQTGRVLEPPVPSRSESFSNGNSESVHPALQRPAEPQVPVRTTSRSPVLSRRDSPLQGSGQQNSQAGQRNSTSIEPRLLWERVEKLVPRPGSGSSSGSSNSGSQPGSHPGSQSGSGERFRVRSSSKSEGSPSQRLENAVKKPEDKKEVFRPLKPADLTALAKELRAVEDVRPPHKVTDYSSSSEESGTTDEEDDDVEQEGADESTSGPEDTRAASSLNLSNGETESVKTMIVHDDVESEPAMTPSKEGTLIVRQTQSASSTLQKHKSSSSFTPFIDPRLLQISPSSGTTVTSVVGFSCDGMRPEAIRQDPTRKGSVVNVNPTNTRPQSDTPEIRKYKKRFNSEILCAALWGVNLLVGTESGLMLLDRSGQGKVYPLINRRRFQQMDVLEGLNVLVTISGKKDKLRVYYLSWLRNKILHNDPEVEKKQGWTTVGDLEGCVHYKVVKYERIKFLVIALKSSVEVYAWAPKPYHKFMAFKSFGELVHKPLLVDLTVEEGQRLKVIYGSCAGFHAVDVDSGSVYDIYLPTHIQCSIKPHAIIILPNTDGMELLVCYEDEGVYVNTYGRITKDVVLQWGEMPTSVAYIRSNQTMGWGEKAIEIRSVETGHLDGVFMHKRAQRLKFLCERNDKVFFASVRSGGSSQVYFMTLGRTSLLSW
Procedure: as §1

[7] = Plasma and brain concentration 30 min after IP injection; format: in vivo, mouse; conditions: mice, ip dosing; for Kp at 30 min / concentration at 30 min: male, C57BL6/J, mouse; for Kp at 30 min: brain/plasma, read-out: B/P
Procedure: All studies were performed on 6-week old male C57BL6/J mice that were housed in the Columbia University Medical Center facility in a 12h light/dark cycle with access to food and water ad libitum. All animal procedures were approved by the Columbia University IACUC. […] Animals were weighed and injected once intraperitoneally (IP) at the indicated dose (10 or 20 mg/kg). After 30 min, animals were deeply anesthetized with 2.5% Avertin. Whole blood was collected by cardiac puncture in tubes containing 0.5M EDTA as an anticoagulant, and centrifuged for 10 min at 845 rcf at 4° to isolate plasma. Following cardiac puncture, animals were decapitated and brains were dissected and weighed. Brain samples were homogenized with a glass dounce homogenizer in 5 volumes of ddH2O. Brain and plasma samples were snap frozen in liquid nitrogen and stored at −80° C. before further processing.
The plasma samples were transferred to Eppendorf tubes (50 μL per sample) and diluted with acetonitrile (200 μL). The samples were sonicated for 1 minute followed by centrifugation at 16,000 rpm for 10 minutes. The supernatant was transferred to another Eppendorf tube and the solvent evaporated overnight. The samples were reconstituted in a mixture of 40 μL acetonitrile and 10 μL water transferred to a sample vial with insert, and analyzed by LC-MS.
The homogenized brain samples (250 μL) were transferred to Eppendorf tubes and diluted with acetonitrile (750 μL). The samples were sonicated for 1 minute followed by centrifugation at 16,000 rpm for 10 minutes. The supernatant (900 μL) was transferred to another Eppendorf tube and the solvent evaporated overnight. The samples were reconstituted in a mixture of 80 μL acetonitrile and 20 μL water, transferred to a sample vial with insert, and analyzed by LC-MS.
LC-MS analysis was performed on a platform comprising a Thermo Scientific Dionex Ultimate 3000 and a Bruker amaZon SL equipped with an electrospray ionization source controlled by Bruker Hystar 3.2. The compound concentration in each plasma sample was determined using a calibration curve. Chromatographic separation was performed by injecting 10 μL of the sample onto an Agilent Eclipse Plus C18 column (2.1×50 mm, 3.5 μm) maintained at 20° C. The flow rate was maintained at 400 μL/min. The initial flow conditions were 60% solvent A (water containing 0.1% acetic acid) and 40% solvent B (methanol containing 0.1% acetic acid). Solvent B was raised to 60% over 0.25 minutes and to 70% by 6.75 minutes.

[8] = Homo sapiens, Neuron, CPA 33 μM, read-out: EC50
[9] = Homo sapiens, Neuron, CPA 33 μM
[10] = read-out: % Enzyme Activity Remaining (relative to DMSO controls), MLK1/MAP3K9, Data 1
[11] = read-out: % Enzyme Activity Remaining (relative to DMSO controls), MLK1/MAP3K9, Data 2

| Molecule | EC50 [2, 8] [µM] | viability at 1 µM ([2]; Homo sapiens, Neuron) [%] | Emax [2, 9] [%] | remaining activity at 0.1 µM [3, 10] [%] | remaining activity at 0.1 µM [3, 11] [%] | % Enzyme Activity Remaining (relative to DMSO controls), MLK3/MAP3K11, Data 1 [4] [%] | % Enzyme Activity Remaining (relative to DMSO controls), MLK3/MAP3K11, Data 2 [4] [%] | remaining activity at 0.025 µM [6] [%] | remaining activity at 0.1 µM [6] [%] | further results |
| --- | --- | --- | --- | --- | --- | --- | --- | --- | --- | --- |
| CCSCc1ccc2c(c1)c1c3c(c4c5cc(CSCC)ccc5n5c4c1n2[C@H]1C[C@](O)(C(=O)OC)[C@]5(C)O1)CNC3=O [CEP1347] |  |  |  |  |  |  |  |  |  | rescue of CPA toxicity [1]: dose-dependent rescue of CPA toxicity |
| CN1CCN(Cc2ccc(-c3cnc4[nH]cc(-c5cccc6[nH]ncc56)c4c3)cc2)CC1 [Compound 7aa, 4-(5-(4-((4-Methylpiperazin-1-yl)methyl)phenyl)-1H-pyrrolo[2,3-b]pyridin-3-yl)-1H-indazole] | 0.208 | 112 | 134 | 52.9 | 51.7 | 31.88 | 31.78 | 2.75 | -1.36 | half-life at 20 μM [5]: 9 min |
| CN1CCN(Cc2ccc(-c3cnc4[nH]cc(-c5ccc(CN6CCOCC6)s5)c4c3)cc2)CC1 [Compound 7t, 4-((5-(5-(4-((4-Methylpiperazin-1-yl)methyl)phenyl)-1H-pyrrolo[2,3-b]pyridin-3-yl)thiophen-2-yl)methyl)morpholine] | 1.38 | 43.6 | 77.3 | 82.1 | 80 | 83.49 | 78.30 | 74.3 | 33.4 |  |
| CN1CCN(Cc2ccc(-c3cnc4[nH]cc(-c5ccc(S(C)(=O)=O)nc5)c4c3)cc2)CC1 [Compound 7u, 5-(4-((4-Methylpiperazin-1-yl)methyl)phenyl)-3-(6-(methylsulfonyl)pyridin-3-yl)-1H-pyrrolo[2,3-b]pyridine] | 4.6 | 33 | 72.9 | 93.9 | 95.9 | 92.02 | 90.70 | 92.9 | 52.3 |  |
| CN1CCN(Cc2ccc(-c3cnc4[nH]cc(-c5ccc6[nH]ncc6c5)c4c3)cc2)CC1 [Compound 7v, 5-(5-(4-((4-Methylpiperazin-1-yl)methyl)phenyl)-1H-pyrrolo[2,3-b]pyridin-3-yl)-1H-indazole] | 0.143 | 115 | 128 | 43 | 44 | 33.57 | 32.45 | 13.8 | 2.9 |  |
| CC(=O)c1ccc(-c2c[nH]c3ncc(-c4ccc(CN5CCN(C)CC5)cc4)cc23)cc1 [Compound 7x, 1-(4-(5-(4-((4-Methylpiperazin-1-yl)methyl)phenyl)-1H-pyrrolo[2,3-b]pyridin-3-yl)phenyl)ethan-1-one] | 0.322 | 78.1 | 78.1 | 65.8 | 67.7 | 67.84 | 65.08 | 30.8 | 7.1 |  |
| CN1CCN(Cc2ccc(-c3cnc4[nH]cc(-c5cccc(F)c5)c4c3)cc2)CC1 [Compound 7y, 3-(3-Fluorophenyl)-5-(4-((4-methylpiperazin-1-yl)methyl)phenyl)-1H-pyrrolo[2,3-b]pyridine] | 0.433 | 86.4 | 104 | 57.1 | 58.1 | 40.75 | 43.09 | 7.85 | 1.53 | half-life at 20 μM [5]: > 30 min |
| CN1CCN(Cc2ccc(-c3cnc4[nH]cc(-c5ccc(OC(F)(F)F)cc5)c4c3)cc2)CC1 [Compound 7z, 5-(4-((4-Methylpiperazin-1-yl)methyl)phenyl)-3-(4-(trifluoromethoxy)phenyl)-1H-pyrrolo[2,3-b]pyridine] |  | 11.2 | 12.8 | 98.6 | 99.2 | 93.59 | 94.16 | 96.4 | 67.9 | EC50 ([2]; CPA 33 μM): Ambiguous |
| CN1CC2CCC(C1)N2Cc1ccc(-c2cnc3[nH]cc(-c4cccc(Cl)c4)c3c2)cc1 [Compound 12f, 3-(3-Chlorophenyl)-5-(4-((3-methyl-3,8-diazabicyclo[3.2.1]octan-8-yl)methyl)phenyl)-1H-pyrrolo[2,3-b]pyridine] | 0.11 |  | 116 |  |  |  |  |  |  | concentration giving complete rescue from CPA ([2]; CPA 33 μM): 0.3 µM; half-life at 20 μM [5]: 158 min |
| O[C@@H]1CCN(Cc2ccc(-c3cnc4[nH]cc(-c5cccc(F)c5)c4c3)cc2)C1 [Compound 12i, (R)-1-(4-(3-(3-Fluorophenyl)-1H-pyrrolo[2,3-b]pyridin-5-yl)benzyl)pyrrolidin-3-ol] | 0.05 |  | 115 |  |  |  |  |  |  | Kp at 30 min ([7]; 10 mg/kg): 3.7; Kp at 30 min ([7]; 20 mg/kg): 2.8; concentration at 30 min ([7]; 10 mg/kg, read-out: brain): 2240 ng/g and 5.78 µM; concentration at 30 min ([7]; 10 mg/kg, read-out: plasma): < 600 ng/mL and < 1.55 µM; concentration at 30 min ([7]; 20 mg/kg, read-out: brain): 9780 ng/g and 25.2 µM; concentration at 30 min ([7]; 20 mg/kg, read-out: plasma): 3490 ng/mL and 9 µM |
| O[C@@H]1CCN(Cc2ccc(-c3cnc4[nH]cc(-c5cccc(Cl)c5)c4c3)cc2)C1 [Compound 12l, (R)-1-(4-(3-(3-Chlorophenyl)-1H-pyrrolo[2,3-b]pyridin-5-yl)benzyl)pyrrolidin-3-ol] | 0.09 |  | 115 |  |  |  |  |  |  | Kp at 30 min ([7]; 10 mg/kg): 1.7; concentration at 30 min ([7]; 10 mg/kg, read-out: brain): < 1000 ng/g and > 2.48 µM; concentration at 30 min ([7]; 10 mg/kg, read-out: plasma): < 600 ng/mL and < 1.49 µM; toxicity at this concentration ([7]; 20 mg/kg): ^cCompound was toxic at this concentration |
| CCN(CC)C(=O)c1ccc(Nc2nc(OCC3CCCCC3)c3[nH]cnc3n2)cc1 [NU6140] |  |  |  |  |  |  |  |  |  | rescue of CPA toxicity [1]: dose-dependent rescue of CPA toxicity |
| Cn1cc(/C=C2\C(=O)Nc3ccc(S(N)(=O)=O)cc32)c2ccccc21 [Syk inhibitor] |  |  |  |  |  |  |  |  |  | rescue of CPA toxicity [1]: dose-dependent rescue of CPA toxicity |
| JAK3 inhibitor IV |  |  |  |  |  |  |  |  |  | rescue of CPA toxicity [1]: dose-dependent rescue of CPA toxicity |

— patent US12227500B2, “Substituted pyrrolo[2,3-b]pyridines for suppressing toxic endoplasmic reticulum stress” (THE TRUSTEES OF COLUMBIA UNIVERSITY IN THE CITY OF NEW YORK, priority 2018, dated 2025)
